Measurements from patent US20200360471A1, “METHODS OF TREATING AND PREVENTING VIRAL INFECTIONS” (priority 2017, published 2020).
Like-named read-outs stand apart in the source and are kept apart here. Peptide text beside a SMILES is read from it.

Assays:
TLR7 = assay: Ongoing inflammation in PBMC cultures: imiquimod 3 hrs followed by omiganan 21 hrs; type: cell-based, human
Protocol: (§1) Primary cell cultures were prepared in RPMI including 5% autologous plasma. Isolated PBMC cells were cultured in 96-well plates at a density of 0.5×10^6cells/well at 37° C., under humidified 5% CO2.
(§2) IL-1β, TNFα, IL-6 and IL-8 were measured simultaneously with a fixed electrochemoluminescence platform based on the sandwich ELISA principle of capture and detection antibodies, produced by MESO SCALE DISCOVERY (MSD, MESO SCALE QUICKPLEX SQ120). The applied assay was the V-PLEX PLUS pro-inflammatory cytokine panel II, including IL-1β, TNFα, IL-6 and IL-8. This assay includes manufacturer-provided control samples with indicated nominal values for comparison. These lyophilized controls, i.e. freeze-dried controls for IL-1β, TNFα, IL-6, IL-8, were prepared freshly at the time of use. QC samples were prepared from the calibrator at 3 different concentrations along the standard curve as multiple aliquots from a single batch and maintained at −20° C. Low, medium and high concentration controls were included in every multiplex assay run to control intra- and inter-assay variation. V-PLEX panels are specific for the detection of human chemokines and cytokines, and combinations have been validated by the manufacturer, to ensure no cross-reactivity.
Briefly, PBMC primary cultures were prepared from 4 donors. […] The readouts for the following cytokine and chemokine release were measured: IL-1β, IL-2, IL-4, IL-6, IL-8 HA, IL-8, IL-12p70, IL-13, IFN-γ, and TNF-α were measured. The cultures were prepared in duplicate.

TC-1 tumor [1] = assay: Tumor outgrowth in TC-1 mice in presence or absence of anti-neutrophil antibody aLy6G; type: in vivo
Protocol: 10, 12, and 14. Tumor growth was measured at days 11, 13, 15, 17, 20, and 22.

[2] = system: imiquimod-induced inflammatory responses of the skin; assay: Topical omiganan and imiquimod in skin of healthy subjects; type: in vivo, human
Protocol: Sixteen (16) healthy subjects participated in the study. Pharmacodynamic effects were assessed on Day 1, 2, 3, 4, 5 and 14 (EOS) by clinical assessment of the lesion on-site with visual erythema grading by a blinded investigator, erythema by colorimetry, erythema by multispectral imaging, erythema by 2D photography analysis, perfusion by laser speckle contrast imaging (LSCI), skin surface biomarkers by transdermal analysis patch (TAP) and local biopsies biomarkers. […] 3 mm skin punch biopsies were collected at day 5 for qPCR mRNA expression, histology and immunohistochemistry. Enhanced inflammation and immune system activation was observed when OMN was applied to 48 hours IMQ primed skin. This was most pronounced for markers IFNγ, IL-10, IL-6, MX1 and MXA (FIGS. 39-43, respectively) indicating an increased anti-viral response. Further, this activity is correlated with cellular infiltrates of CD4+, CD8+ and CD14+ cells (FIGS. 44-47).

TLR3/RIG-1/Mda5 = assay: polyI:C-induced cytokine responses in PBMC cultures with peptide pre-treatment; type: cell-based, human; settings: 5 or 25 μg/mL peptide, 30 min pre-treatment, 24 hrs
Protocol: as §1, §2
IFNα was quantified by a sandwich ELISA based on specific capture and detection antibodies for various matrices (MABTECH), according to the manufacturer's instructions. QC samples were prepared from the calibrator at 3 different concentrations along the standard curve as multiple aliquots from a single batch and maintained at −20° C.
IFNβ was quantified by a sandwich ELISA based on specific capture and detection antibodies for various matrices (PBL ASSAY SCIENCE), according to the manufacturer's instructions. QC samples were prepared from the calibrator at 3 different concentrations along the standard curve as multiple aliquots from a single batch and maintained at −20° C. freezer.
Briefly, PBMC primary cultures were prepared from 4 healthy donors (2 males, 2 females) as described above. […] The cultures were prepared in duplicate and the readouts for pan-IFNα and IFNβ (ELISA) were measured once. Five-point concentration-response curves were constructed for the various treatment conditions in the PBMC cultures, freshly isolated from 4 subjects.

[3] = system: external anogenital warts; type: in vivo, human
Protocol: A randomized, double-blind, placebo-controlled study to assess the pharmacodynamics, safety/tolerability and efficacy of omiganan in patients with external anogenital warts was conducted. 24 patients aged 18 years or older with clinically diagnosed external anogenital warts were enrolled. […] The gel was applied topically once daily for 12 weeks. The treatment period was from day 0 till day 84. During the treatment period subjects visited the clinical unit on days 0, 14, 28, 56 and 84. A fixed dose of omiganan or placebo was applied once daily. Two follow up visits were scheduled on days 126 and 168. During study execution, vital signs were measured on days 0, 14, 28, 56 and 84. Pharmacodynamic assessments were performed on day 0 (pre-dose), 14, 28, 56 and 84, respectively. Punch biopsies were performed at the screening and on days 56 and 168. Subjects were dosed 84 consecutive days with approximately 24 hours between each treatment. Omiganan or placebo (vehicle) was administered to the subjects. […] Subjects were instructed to apply a fingertip unit of gel (approximately […]). Omiganan is prepared as a lyophilized powder of the pentahydrochloride salt. The molecular formula is C90H127N27O12. HCl*H2O. […] Any other therapy for external anogenital warts (topical treatment, laser therapy, cryotherapy, photodynamic therapy and surgical excision) was not allowed from 28 days prior to the first study drug administration, during the study and until the 3 month follow up assessment was completed. Wart count and wart clearance. The warts were counted at every study visit. FIGS. 18A and 18B show the change in value of the count of the target warts over time per treatment. […] Wart clearance was derived from the count of all warts present at baseline. In FIG. 19, the proportion of baseline lesions cleared is shown. […] Wart size. Wart size was measured during every visit. The change in mean of the long and short diameter, height and volume measured is presented in FIG. 21 along with the p-values.

TC-1 tumor [4] = assay: Tumor outgrowth and flow cytometry after intratumoral injections in TC-1 mice; type: in vivo
Protocol: Tumor growth was measured at days 9, 10, 12, 14, and 16.
Tumor growth was measured at day 9 (one day before injection), 10, 12, 14 and day 16 (at sacrifice).

[5] = omiganan 25, 12.5, 6.25 μg/mL added after 3 hour imiquimod
[6] = omiganan added after 3 hour imiquimod, effect less obvious
[7] = omiganan applied after imiquimod application

CC[C@H](C)[C@H](N)C(=O)N[C@@H](CC(C)C)C(=O)N[C@@H](CCCNC(=N)N)C(=O)N[C@@H](Cc1c[nH]c2ccccc12)C(=O)N1CCC[C@H]1C(=O)N[C@@H](Cc1c[nH]c2ccccc12)C(=O)N[C@@H](Cc1c[nH]c2ccccc12)C(=O)N1CCC[C@H]1C(=O)N[C@@H](Cc1c[nH]c2ccccc12)C(=O)N[C@@H](CCCNC(=N)N)C(=O)N[C@@H](CCCNC(=N)N)C(=O)N[C@@H](CCCCN)C(N)=O [omiganan, I L R W P W W P W R R K] (H-ILRWPWWPWRRK-NH2)
IL-1β response (TLR7; [5]): did not significantly modify | IL-8 response (TLR7; [5]): significantly enhanced | IL-6 response (TLR7; [6]): enhanced | TNF-α response (TLR7; [6]): enhanced | tumor outgrowth compared to PBS-treated mice (TC-1 tumor [1]; intratumoral on days 9, 11, 14, 16, 18, without aLy6G): reduction in tumor outgrowth | reduction in tumor outgrowth (TC-1 tumor [1]; omiganan treated group also treated with aLy6G): not observed | relation of this activity to cellular infiltrates of CD4+, CD8+ and CD14+ cells ([2]; applied to 48 hours IMQ primed skin, biopsies day 5): correlated | inflammation and immune system activation (most pronounced for IFNγ, IL-10, IL-6, MX1, MXA) ([2]; applied to 48 hours IMQ primed skin, biopsies day 5, qPCR): Enhanced | basal blood flow [2, 7]: enhanced the activity of imiquimod | erythema [2, 7]: enhanced the activity of imiquimod | IL-6 responses to polyI:C (TLR3/RIG-1/Mda5) (TLR3/RIG-1/Mda5): did not significantly affect | TNFα responses to polyI:C (TLR3/RIG-1/Mda5) (TLR3/RIG-1/Mda5): did not significantly affect | polyI:C-driven IL-1β release (TLR3/RIG-1/Mda5): did not significantly affect | spontaneous and polyI:C-driven IL-8 release (TLR3/RIG-1/Mda5): strongly inhibited | interferon responses induced by polyI:C stimulation (TLR3/RIG-1/Mda5; PBMC of 4 donors): enhanced | proportion of all lesions cleared (printed: mean of baseline warts cleared) ([3]; EOS, p-value=0.2891 vs vehicle): 23.82% | mean of baseline warts cleared ([3]; EOS, p-value=0.3918 vs vehicle): 29.3% | mean of all warts cleared ([3]; EOT, p-value=0.1879 vs vehicle): 11.4% | mean of baseline warts cleared ([3]; EOT, p-value=0.2500 vs vehicle): 15.5% | mean volume of the target warts compared to vehicle ([3]; at EOT visit, p-value=0.0367): significantly lower | volume of the warts compared to vehicle ([3]; entire study period (pre-dose till EOS), p=0.0655): trend to reduction | adverse events ([3]; human, in vivo): few adverse events | safety of administration to patients with external anogenital warts ([3]; human, in vivo): safe | height of the warts compared to vehicle ([3]; p=0.0543): clear trend in decrease | wart count ([3]; summary of study): trend in reduction | photography assessment of anogenital warts ([3]; two subjects treated with omiganan): visible wart size reduction or even clearance | tumor outgrowth compared to PBS-treated mice (TC-1 tumor [4]; 30 nmol intratumoral on days 10, 12, 14): reduction in tumor outgrowth | CD11c expression of Ly6C-low macrophages in TC-1 tumors (macrophage phenotype) (TC-1 tumor [4]; flow cytometry after three intratumoral injections): lower CD11c expression
